Measurements as given in ChEMBL document CHEMBL1201862, “PubChem BioAssay data set” (2004).
Calls of active or inactive are those of the source.

Tests used:
[1] = target: T1, Replicative DNA helicase DnaB (Mycobacterium tuberculosis, UniProt P9WMR3); test: DnaB intein splicing inhibitors, dose response, biochemical, cell-free fluorescence (AID 449749); type: functional
T1 sequence (P9WMR3 whole entry): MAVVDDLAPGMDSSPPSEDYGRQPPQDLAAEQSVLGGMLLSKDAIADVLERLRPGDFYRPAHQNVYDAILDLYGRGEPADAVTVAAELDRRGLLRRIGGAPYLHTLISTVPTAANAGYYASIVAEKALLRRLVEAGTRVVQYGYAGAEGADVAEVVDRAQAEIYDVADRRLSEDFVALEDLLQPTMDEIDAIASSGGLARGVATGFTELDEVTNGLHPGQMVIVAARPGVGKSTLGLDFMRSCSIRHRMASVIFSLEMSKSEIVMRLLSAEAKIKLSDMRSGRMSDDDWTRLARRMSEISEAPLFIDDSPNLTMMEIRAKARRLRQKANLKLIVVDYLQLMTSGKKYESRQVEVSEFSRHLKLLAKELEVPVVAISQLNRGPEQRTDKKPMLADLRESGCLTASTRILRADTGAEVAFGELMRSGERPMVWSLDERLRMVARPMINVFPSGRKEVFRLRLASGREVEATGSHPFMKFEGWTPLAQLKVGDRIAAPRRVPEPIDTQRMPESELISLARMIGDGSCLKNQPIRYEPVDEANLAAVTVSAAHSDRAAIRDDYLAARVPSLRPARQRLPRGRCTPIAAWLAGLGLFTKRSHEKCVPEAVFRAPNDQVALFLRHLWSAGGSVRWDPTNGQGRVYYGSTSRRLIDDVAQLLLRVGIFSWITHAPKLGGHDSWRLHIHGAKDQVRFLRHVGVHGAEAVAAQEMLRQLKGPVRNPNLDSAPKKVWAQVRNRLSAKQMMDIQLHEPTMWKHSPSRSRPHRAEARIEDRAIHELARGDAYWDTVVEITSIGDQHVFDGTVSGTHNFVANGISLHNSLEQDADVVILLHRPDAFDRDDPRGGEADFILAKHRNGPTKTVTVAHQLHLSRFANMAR

Protein RecA = target: T2, Protein RecA (Mycobacterium tuberculosis, UniProt P9WHJ3); test: Fluorescence Cell-Free Homogeneous Dose Retest to Identify Inhibitors of RecA-Intein Splicing Activity. [Related pubchem assays (depositor defined):AID2097, AID2223, AID489010, AID492950]; type: functional
T2 sequence (P9WHJ3 whole entry): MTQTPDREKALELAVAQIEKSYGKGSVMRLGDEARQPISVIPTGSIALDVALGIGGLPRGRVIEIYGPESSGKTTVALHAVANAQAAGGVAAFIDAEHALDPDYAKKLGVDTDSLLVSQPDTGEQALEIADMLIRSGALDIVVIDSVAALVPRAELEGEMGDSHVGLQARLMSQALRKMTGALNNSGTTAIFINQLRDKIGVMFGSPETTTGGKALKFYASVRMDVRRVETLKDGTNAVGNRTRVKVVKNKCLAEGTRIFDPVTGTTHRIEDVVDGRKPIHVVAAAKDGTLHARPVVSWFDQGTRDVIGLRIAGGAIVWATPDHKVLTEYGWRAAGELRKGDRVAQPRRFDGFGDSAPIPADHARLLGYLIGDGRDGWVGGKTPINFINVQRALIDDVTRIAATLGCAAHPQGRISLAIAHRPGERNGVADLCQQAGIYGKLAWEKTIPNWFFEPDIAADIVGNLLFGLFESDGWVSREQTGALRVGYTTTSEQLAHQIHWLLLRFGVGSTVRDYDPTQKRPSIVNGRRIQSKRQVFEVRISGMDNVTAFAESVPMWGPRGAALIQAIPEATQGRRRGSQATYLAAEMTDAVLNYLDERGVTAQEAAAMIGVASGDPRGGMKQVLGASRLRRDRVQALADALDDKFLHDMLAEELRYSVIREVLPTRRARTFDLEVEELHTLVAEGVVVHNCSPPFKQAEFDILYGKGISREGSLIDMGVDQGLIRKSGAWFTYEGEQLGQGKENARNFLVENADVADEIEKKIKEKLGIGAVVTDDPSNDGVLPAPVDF

[2] = target: E3 ubiquitin-protein ligase UHRF1 (Homo sapiens, UniProt Q96T88); test: Counterscreen for inhibitors of 5-meCpG-binding domain protein 2 (MBD2): TRFRET-based biochemical high throughput dose response assay to identify inhibitors of binding of ubiquitin-like with PHD and ring finger domains 1 (UHRF1) to methylated oligonucleotide.
Chain of E3 ubiquitin-protein ligase UHRF1 (Q96T88 whole entry, the tested form may be a part): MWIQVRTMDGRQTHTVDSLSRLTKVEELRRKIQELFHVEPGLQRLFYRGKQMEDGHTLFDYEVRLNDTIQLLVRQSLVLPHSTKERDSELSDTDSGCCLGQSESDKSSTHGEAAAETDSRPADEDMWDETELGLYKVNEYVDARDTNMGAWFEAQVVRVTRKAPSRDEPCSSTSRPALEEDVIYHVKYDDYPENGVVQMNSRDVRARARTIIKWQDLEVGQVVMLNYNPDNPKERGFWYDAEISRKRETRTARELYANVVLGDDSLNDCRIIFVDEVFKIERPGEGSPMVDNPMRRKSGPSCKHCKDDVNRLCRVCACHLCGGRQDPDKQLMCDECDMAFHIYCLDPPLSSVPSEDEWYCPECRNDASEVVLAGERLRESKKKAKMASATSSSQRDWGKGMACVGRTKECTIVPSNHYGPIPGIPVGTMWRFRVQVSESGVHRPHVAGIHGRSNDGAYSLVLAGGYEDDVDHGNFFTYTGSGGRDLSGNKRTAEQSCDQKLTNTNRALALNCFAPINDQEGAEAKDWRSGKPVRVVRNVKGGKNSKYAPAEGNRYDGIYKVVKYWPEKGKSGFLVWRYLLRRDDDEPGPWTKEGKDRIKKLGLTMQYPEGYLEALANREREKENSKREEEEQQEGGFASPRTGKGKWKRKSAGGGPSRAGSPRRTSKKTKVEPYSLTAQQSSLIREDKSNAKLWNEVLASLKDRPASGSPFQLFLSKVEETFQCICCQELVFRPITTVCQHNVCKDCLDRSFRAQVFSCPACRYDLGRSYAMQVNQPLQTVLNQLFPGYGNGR

[3] = Trypanosoma cruzi growth suppression in host cells – NIH3T3 host cells, beta-gal luminescence, confirmation (AID 2044); type: functional, cell-based;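 also: intracellular parasites grown in NIH/3T3 mouse fibroblasts as host cells; luminescent beta-galactosidase reporter signal from transgenic T. cruzi replicating inside host cells; inhibitors lower the luminescence signal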
[4] = target: T3, Tyrosyl-DNA phosphodiesterase 2 (Homo sapiens, UniProt O95551); test: potency against TDP2 phosphodiesterase activity – biochemical, epi absorbance, IC50, dose response (AID 743297)
T3 sequence (O95551 whole entry): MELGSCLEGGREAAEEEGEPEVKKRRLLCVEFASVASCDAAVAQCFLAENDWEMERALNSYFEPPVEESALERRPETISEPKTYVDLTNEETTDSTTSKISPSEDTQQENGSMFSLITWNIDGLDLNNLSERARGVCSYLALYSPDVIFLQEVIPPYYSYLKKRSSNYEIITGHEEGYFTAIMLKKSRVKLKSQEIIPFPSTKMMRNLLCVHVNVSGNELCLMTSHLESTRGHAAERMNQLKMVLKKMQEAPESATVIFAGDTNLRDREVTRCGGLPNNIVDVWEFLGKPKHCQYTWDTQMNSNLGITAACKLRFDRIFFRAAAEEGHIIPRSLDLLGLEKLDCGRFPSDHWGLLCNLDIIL

[5] = NIH3T3 cell viability loss – ATP luminescence, mouse fibroblasts, counter-screen, dose response (AID 2010); type: functional, cell-based;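 also: cells exposed to compound for about 90 hours before reading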
[6] = target: T4, Polyadenylate-binding protein 1 (Homo sapiens, UniProt P11940); test: MLLE binding blockers, Cy5 peptide tracer – biochemical, fluorescence polarization, Cy5-PAM2 peptide, secondary, miRNA deadenylation inhibitor project, dose response (AID 602260); type: functional; conditions: read-out: IC50_Mean
T4 sequence (P11940 whole entry): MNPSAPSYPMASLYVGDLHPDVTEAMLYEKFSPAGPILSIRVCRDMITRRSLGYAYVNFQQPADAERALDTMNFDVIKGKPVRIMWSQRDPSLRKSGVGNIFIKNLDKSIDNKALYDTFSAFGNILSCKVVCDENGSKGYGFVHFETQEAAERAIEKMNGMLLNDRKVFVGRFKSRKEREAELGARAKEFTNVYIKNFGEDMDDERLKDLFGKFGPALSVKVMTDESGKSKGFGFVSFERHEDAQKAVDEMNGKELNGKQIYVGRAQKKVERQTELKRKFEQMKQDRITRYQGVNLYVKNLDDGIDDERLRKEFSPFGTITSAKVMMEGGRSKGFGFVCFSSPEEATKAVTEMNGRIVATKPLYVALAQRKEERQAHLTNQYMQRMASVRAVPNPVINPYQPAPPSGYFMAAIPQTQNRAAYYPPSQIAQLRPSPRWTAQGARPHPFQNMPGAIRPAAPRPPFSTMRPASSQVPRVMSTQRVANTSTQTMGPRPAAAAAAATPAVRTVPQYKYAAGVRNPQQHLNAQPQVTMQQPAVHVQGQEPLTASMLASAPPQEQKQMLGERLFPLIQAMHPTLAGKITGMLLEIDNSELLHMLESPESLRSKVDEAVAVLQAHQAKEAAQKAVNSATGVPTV

[7] = microbe, parasite or virus in culture; type: functional; conditions: Mycobacterium tuberculosis
[8] = bead-based luminescence quenchers, dual-tagged ARNT – biochemical, AlphaScreen, cherry-pick, artefact control for ARNT-TACC3 interaction inhibitor project, dose response (AID 651705); type: functional;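 also: AlphaScreen bead proximity signal that flags compounds interfering with the detection technology; potency reflects signal decrease which marks the compound as an assay artifact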
[9] = target: Mitochondrial peptide methionine sulfoxide reductase (Bos taurus, UniProt P54149); test: Absorbance-based biochemical high throughput dose response assay for activators of Methionine sulfoxide reductase A (MsrA).; type: functional
Chain of Mitochondrial peptide methionine sulfoxide reductase (P54149 whole entry): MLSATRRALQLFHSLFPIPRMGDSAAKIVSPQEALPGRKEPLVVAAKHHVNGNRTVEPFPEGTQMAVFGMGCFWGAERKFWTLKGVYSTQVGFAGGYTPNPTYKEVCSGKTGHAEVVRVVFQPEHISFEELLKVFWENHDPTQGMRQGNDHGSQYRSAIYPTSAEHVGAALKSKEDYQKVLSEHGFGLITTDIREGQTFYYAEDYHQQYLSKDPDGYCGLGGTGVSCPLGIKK

[10] = target: Matrix metalloproteinase-14 (Homo sapiens, UniProt P50281); test: Dose Response confirmation of uHTS hits for a small molecule inhibitors of MT1-MMP activation in a fluorescence assay set 1.; type: functional
[11] = target: T4, Polyadenylate-binding protein 1; test: MLLE domain peptide-binding blockers, IC50 – biochemical, fluorescence polarization, FITC-PAM2 peptide, dose response (AID 602259); type: functional; conditions: read-out: IC50_Mean
Caspase-6 = Caspase-6 (Homo sapiens, UniProt P55212); test: inhibition of CASP6 peptide cleavage – biochemical, VEID-R110 fluorescence, cherry-pick, dose response (AID 720632)
Chain of Caspase-6 (P55212 24-179 limits assumed): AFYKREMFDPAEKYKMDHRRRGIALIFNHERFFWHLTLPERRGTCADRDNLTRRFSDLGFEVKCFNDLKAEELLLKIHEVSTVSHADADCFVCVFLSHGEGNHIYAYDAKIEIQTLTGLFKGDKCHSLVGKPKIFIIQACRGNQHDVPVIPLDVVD
Chain of Caspase-6 (P55212 194-293 limits assumed): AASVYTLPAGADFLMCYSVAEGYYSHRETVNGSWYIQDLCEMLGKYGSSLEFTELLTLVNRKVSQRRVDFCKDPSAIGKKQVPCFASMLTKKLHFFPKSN

[12] = target: T5, Endoplasmic reticulum aminopeptidase 1 (Homo sapiens, UniProt Q9NZ08); test: inhibition of human ERAP1 enzyme activity – biochemical, cherry-pick, set 2, plate reader, dose response (AID 743314)
T5 sequence (Q9NZ08 whole entry): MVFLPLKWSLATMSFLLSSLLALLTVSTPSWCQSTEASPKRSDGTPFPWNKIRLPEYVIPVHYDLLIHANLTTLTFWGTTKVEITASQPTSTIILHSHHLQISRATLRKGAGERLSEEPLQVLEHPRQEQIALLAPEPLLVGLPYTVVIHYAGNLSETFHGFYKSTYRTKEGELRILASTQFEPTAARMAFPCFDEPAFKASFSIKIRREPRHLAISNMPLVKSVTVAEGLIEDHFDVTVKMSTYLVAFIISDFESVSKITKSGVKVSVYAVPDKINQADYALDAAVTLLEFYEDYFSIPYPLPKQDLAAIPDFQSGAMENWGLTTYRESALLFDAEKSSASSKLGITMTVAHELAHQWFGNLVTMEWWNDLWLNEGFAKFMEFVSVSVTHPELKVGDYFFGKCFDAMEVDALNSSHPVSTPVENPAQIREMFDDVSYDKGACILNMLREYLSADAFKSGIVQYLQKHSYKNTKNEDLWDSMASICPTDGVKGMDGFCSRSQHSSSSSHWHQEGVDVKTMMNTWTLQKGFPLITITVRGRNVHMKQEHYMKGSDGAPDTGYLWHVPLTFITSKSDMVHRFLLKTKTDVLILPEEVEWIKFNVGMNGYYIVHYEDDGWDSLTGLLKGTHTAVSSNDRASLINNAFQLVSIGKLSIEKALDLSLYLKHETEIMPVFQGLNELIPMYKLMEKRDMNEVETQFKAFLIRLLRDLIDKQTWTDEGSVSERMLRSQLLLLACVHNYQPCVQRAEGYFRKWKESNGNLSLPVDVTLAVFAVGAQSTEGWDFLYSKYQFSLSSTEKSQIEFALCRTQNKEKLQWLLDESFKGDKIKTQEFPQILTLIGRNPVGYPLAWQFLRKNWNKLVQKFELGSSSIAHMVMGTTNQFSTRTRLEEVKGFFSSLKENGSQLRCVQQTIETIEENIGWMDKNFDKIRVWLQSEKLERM

[13] = target: T5, Endoplasmic reticulum aminopeptidase 1; test: blocking ERAP1 cleavage of leucine-AMC substrate – biochemical, fluorescence plate reader, dry powder, dose response (AID 1117292); type: functional
[14] = target: 1-phosphatidylinositol 4,5-bisphosphate phosphodiesterase beta-3 (Homo sapiens, UniProt Q01970); test: Fluorescence-based biochemical high throughput dose response assay to identify inhibitors of phospholipase C isozymes (PLC-B3).
[15] = target: T6, Rac GTPase-activating protein 1 (Homo sapiens, UniProt Q9H0H5); test: blockers of MgcRacGAP-driven Rac1 GTP hydrolysis – biochemical, ADP Hunter fluorescence, primary and confirmatory, confirmation (AID 624330); type: functional
T6 sequence (Q9H0H5 whole entry): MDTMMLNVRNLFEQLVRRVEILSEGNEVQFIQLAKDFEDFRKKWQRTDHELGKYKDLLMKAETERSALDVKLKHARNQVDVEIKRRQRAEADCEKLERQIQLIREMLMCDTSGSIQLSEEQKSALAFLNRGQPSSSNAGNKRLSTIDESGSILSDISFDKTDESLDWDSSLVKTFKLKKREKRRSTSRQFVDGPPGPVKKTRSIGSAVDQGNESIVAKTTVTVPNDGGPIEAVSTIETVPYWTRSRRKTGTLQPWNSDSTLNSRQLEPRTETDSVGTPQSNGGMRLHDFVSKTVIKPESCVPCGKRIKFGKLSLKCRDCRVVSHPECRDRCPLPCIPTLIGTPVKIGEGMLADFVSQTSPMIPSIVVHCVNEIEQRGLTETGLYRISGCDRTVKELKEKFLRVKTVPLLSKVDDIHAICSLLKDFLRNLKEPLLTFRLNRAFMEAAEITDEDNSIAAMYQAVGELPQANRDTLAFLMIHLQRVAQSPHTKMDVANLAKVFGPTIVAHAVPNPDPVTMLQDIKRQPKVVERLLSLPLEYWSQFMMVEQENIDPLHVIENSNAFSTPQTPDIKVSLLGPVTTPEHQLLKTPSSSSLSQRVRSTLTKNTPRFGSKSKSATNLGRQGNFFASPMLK

Genome polyprotein = Genome polyprotein (dengue virus type 2, UniProt P29990); test: flavivirus cap methylation enzyme inhibition – biochemical, confirmation dose response, primary screen (AID 588689); type: functional
Chain of Genome polyprotein (P29990 2492-3391 limits assumed): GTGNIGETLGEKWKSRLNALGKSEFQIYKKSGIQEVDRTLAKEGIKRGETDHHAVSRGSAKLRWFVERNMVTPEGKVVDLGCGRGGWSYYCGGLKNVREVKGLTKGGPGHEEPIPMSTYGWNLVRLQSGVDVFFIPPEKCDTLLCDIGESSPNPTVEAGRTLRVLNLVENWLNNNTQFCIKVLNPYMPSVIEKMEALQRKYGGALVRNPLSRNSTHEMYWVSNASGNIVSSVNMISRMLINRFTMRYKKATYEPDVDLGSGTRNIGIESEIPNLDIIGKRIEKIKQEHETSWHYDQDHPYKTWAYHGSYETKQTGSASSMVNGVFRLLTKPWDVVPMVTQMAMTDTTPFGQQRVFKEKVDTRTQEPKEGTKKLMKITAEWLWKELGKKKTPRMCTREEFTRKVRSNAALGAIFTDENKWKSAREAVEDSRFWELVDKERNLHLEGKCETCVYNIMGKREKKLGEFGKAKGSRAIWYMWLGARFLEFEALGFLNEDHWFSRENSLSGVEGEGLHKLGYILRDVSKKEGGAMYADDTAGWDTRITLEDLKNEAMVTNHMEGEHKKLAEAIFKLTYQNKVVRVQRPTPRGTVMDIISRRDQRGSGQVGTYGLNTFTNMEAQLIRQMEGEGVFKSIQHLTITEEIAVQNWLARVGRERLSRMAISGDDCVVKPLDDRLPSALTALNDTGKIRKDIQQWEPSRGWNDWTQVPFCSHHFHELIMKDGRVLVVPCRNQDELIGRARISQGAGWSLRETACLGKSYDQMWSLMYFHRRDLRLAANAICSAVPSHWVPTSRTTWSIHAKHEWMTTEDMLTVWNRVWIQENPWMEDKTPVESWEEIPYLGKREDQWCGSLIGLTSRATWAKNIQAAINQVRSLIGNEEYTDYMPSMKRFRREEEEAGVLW

[16] = target: 1-phosphatidylinositol 4,5-bisphosphate phosphodiesterase gamma-1 (Homo sapiens, UniProt P19174); test: Counterscreen for inhibitors of phospholipase C isozymes (PLC-B3): Fluorescence-based biochemical high throughput dose response assay to identify inhibitors of phospholipase C isozymes (PLC-gamma1).
[17] = target: Glutathione-S-transferase (Schistosoma japonicum, UniProt Q26513); test: GST-antibody interaction or FRET quenching – biochemical, TR-FRET, artefact control for Vif-APOBEC3G degradation inhibitor project, dose response (AID 1117362); type: functional
Chain of Glutathione-S-transferase (Q26513 whole entry): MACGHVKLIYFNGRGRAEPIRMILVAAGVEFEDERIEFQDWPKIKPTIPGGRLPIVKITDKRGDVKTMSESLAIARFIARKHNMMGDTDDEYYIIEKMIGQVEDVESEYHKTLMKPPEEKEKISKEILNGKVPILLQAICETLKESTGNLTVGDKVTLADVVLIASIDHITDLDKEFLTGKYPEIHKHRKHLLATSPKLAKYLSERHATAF

[18] = inhibition of fibronectin matrix deposition – AH1F cells, Alexa488-fibronectin fluorescence, cherry-pick, set 2, dose response (AID 1117283); type: functional, cell-based
[19] = viability loss in HepG2 hepatoma cells – cell-based, cherry-picks, set 5, cytotoxicity control, dose response (AID 1053118); type: functional
[20] = viability loss in A549 lung cancer cells – cell-based, cherry-picks, […], cytotoxicity control, dose response (AID 1053119); type: functional
[21] = Dd2 parasite growth inhibition in erythrocytes – SYBR Green, dry powder samples, set 4, dose response (AID 1159572); type: functional, cell-based
Vero [22] = test: cells; type: functional, cell-based; conditions: Chlorocebus sabaeus
HSP90 = HSP90 (Plasmodium falciparum 3D7, UniProt Q8IL32); type: functional, organism-based
Chain of HSP90 (Q8IL32 whole entry): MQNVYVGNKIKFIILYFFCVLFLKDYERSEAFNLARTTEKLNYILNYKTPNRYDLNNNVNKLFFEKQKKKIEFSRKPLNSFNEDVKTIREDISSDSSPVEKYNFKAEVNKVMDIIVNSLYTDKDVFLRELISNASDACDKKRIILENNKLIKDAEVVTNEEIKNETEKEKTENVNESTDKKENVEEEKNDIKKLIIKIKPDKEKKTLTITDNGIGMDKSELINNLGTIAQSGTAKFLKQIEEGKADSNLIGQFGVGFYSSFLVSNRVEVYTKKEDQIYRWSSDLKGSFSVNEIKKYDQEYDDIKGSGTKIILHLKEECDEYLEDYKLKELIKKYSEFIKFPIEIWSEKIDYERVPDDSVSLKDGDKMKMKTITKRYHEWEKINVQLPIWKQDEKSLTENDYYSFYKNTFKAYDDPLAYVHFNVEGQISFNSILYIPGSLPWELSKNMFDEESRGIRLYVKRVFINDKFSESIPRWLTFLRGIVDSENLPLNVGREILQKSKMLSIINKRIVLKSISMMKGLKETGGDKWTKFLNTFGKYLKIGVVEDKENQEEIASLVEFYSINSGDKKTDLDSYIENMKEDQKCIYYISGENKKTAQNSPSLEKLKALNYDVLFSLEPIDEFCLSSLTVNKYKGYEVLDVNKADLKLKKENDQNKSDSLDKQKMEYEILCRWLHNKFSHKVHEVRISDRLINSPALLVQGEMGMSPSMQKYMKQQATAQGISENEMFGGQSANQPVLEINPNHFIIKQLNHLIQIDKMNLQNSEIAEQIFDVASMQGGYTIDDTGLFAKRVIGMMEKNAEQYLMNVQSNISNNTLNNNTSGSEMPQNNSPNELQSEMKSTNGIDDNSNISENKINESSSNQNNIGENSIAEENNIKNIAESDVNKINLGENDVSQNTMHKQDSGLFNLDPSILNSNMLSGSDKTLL

[23] = cytotoxicity toward HT-29 cells – cell-based, CellTiter-Glo luminescence, IC50, dose response (AID 1117330); type: functional
Vero [24] = test: cells; type: functional; conditions: Chlorocebus sabaeus
[25] = cytotoxicity toward HCT116 cells – cell-based, CellTiter-Glo luminescence, IC50, dose response (AID 1117332); type: functional; conditions: HCT-116
[26] = Reduced DLD-1 viability, concentration-response, CellTiter-Glo luminescence (AID 1117352); type: functional
[27] = HCT116 cell viability decrease, GSK3B pretreatment – CellTiter-Glo, IC50, dose response (AID 1117339); type: functional; conditions: HCT-116
[28] = CellTiter-Glo luminescence survival assay, SW480 colon tumor line, concentration-response curve, half-maximal inhibitory concentration (AID 1117338); type: functional
[29] = target: Heat shock protein HSP 90-alpha (Homo sapiens, UniProt P07900); type: functional, organism-based
[30] = SNU-C1 cell viability reduction, dose response, CellTiter-Glo luminescence (AID 1117323); type: functional, cell-based
[31] = RKO cell viability reduction, dose response, CellTiter-Glo luminescence (AID 1117322); type: functional
[32] = cytotoxicity toward Colo320 cells – cell-based, CellTiter-Glo luminescence, IC50, dose response (AID 1117334); type: functional; conditions: COLO 320

## CNc1ccc2nc3ccccc3[n+](C)c2c1.[O-][Cl+3]([O-])([O-])[O-]
[1]
  AC50: > 380 µM (inactive)
Protein RecA
  EC50: 2.37 µM (active)
[2]
  IC50: > 43.8 µM (inactive)
[3]
  EC50: 0.689 µM (active)
[4]
  IC50: > 128 µM (inactive)
[5]
  EC50: > 60 µM (not active)
[6]
  IC50: 35.1 µM (inactive)
[7]
  CC50: 18.3 µM (active)
[8]
  AC50: 133 µM (active)
[9]
  EC50: 2.13 µM (active)
[10]
  IC50: 14 µM (active)
[11]
  IC50: 18 µM (active)
Caspase-6
  AC50: 2.79 µM (active)

## N=C(NCCc1c[nH]c2ccccc12)NS(=O)(=O)c1cc(F)ccc1F
[12]
  AC50: 6.09 µM (active)
[13]
  AC50: 59.9 µM (active)

## O=C(O)c1cccc2cccc(-c3c4ccc(=O)c(O)c-4oc4c(O)c(O)ccc34)c12
[14]
  IC50: > 122 µM (inactive)
[15]
  IC50: 13.3 µM (active)
Genome polyprotein
  IC50: 14.6 µM (active)
[16]
  IC50: > 122 µM (inactive)
[17]
  IC50: > 100 µM (active)

## O=C(c1cccnc1)N1C[C@@H]2[C@H](c3ccccc31)[C@H](CO)N2CC1CCCC1
[18]
  AC50: > 60 µM (inactive)
[19]
  AC50: > 47 µM (inactive)
[20]
  AC50: > 47 µM (inactive)

## COc1ccc2c3c([nH]c2c1)[C@H](CO)N(C(C)=O)CC31CCN(S(=O)(=O)c2ccccc2)CC1
[21]
  AC50: 9.86 µM (active)

## Oc1c(Br)cc(Br)c2cccnc12 [BROXYQUINOLINE]
Vero [22]
  IC50: > 25 µM (active)
HSP90
  AC50: 0.373 µM (active)
[23]
  IC50: 5.25 µM (inactive)
Vero [24]
  CC50: 18.7 µM (active)
[25]
  IC50: 0.193 µM (active)
[26]
  IC50: 0.157 µM (active)
[27]
  IC50: 0.183 µM (active)
[28]
  IC50: 0.132 µM (active)
[29]
  AC50: 0.7 µM (active)
[30]
  IC50: 0.366 µM (active)
[31]
  IC50: 0.163 µM (active)
[32]
  IC50: 0.114 µM (active)
